Reference: paper PMC11597085 (Molecules, 2024)
Read-outs that look alike come from different tables or passages of the source.

Experiments:
BACE-1 = target: T1, BACE-1 (Homo sapiens, UniProt P56817); test: BACE-1 FRET inhibition assay; assay type: biochemical
T1 construct: purchased PanVera Corp. / Thermo Fisher Scientific P2985
Method: A BACE-1 inhibition assay was performed using a β-Secretase FRET kit (BACE-1, Thermo Fisher Scientific, San Diego, CA, USA) following the manufacturer’s instructions. […] In black 96-well microplates, 10 µL of the BACE-1 substrate was added to the diluted samples. The reaction was initiated by adding 10 µL of 3× BACE-1 enzyme to each well. The plates were incubated for 60 min at RT in the dark. After incubation, the reaction was stopped by adding 10 µL of 2.5 mM sodium acetate to each well. […] The IC50 value was determined by plotting the relative fluorescence units per hour (RFU/h) against the logarithmic inhibitor concentrations. All experiments were conducted in triplicate.

[1] = Chemical stability in water (10 mM) at 60 °C by HPLC; assay type: physicochemical; conditions: for Chemical stability, Initial (%): HPLC AUC, 0 h set to 100%; for Chemical stability, 24 h / Chemical stability, 48 h / Chemical stability, 76 h / Chemical stability, 164 h / Chemical stability, 330 h: storage at 60 °C, HPLC
Method: For this purpose, high-performance liquid chromatography (HPLC) was employed to measure any changes in these species upon storage at 60 °C (Table 1).

[2] = system: phosphorylated tau (P-tau); test: P-tau level ELISA in SH-SY5Y cells; conditions: Homo sapiens, 24 h, read-out: P-tau inhibition
Method: SH-SY5Y cells were grown in a complete growth medium comprising Dulbecco’s Modified Eagle Medium (DMEM) supplemented with 10% fetal bovine serum (FBS) and 1% penicillin/streptomycin. For treatment, adherent SH-SY5Y cells were plated in 96-well plates at a density of 2 × 10^6 cells per well. Levosimendan (Sigma, St. Louis, MO, USA) was used as an inhibitor to verify the effect on tau inhibition. Upon treatment with 20 μM of each substance, the cells were cultured for 24 h. The supernatant was then collected and used in subsequent ELISA assays.
The tau levels were assessed using a Human Tau ELISA kit (Abcam, Cambridge, UK). After treatment, the supernatant was diluted five times. The diluted supernatant, capture antibody, and detection antibody were mixed in a 2:1:1 ratio and incubated for 1 h. The wells were then washed three times with a wash buffer. After removing the buffer, 100 µL of 3,3′,5,5′-tetramethylbenzidine developer was added and incubated for 10 min, followed by the addition of 100 µL stop solution. The optical density was measured at 450 nm. Data analysis was performed by calculating the mean and standard deviation using GraphPad Prism 8 (GraphPad, San Diego, CA, USA).

[3] = DPPH radical scavenging assay; assay type: biochemical; conditions: methanol, 30 min, RT, dark
Method: The mixture was then kept in the dark at RT for 30 min. Afterward, the absorbance was measured at 540 nm.

[4] = target: T2, acetylcholinesterase (AChE) (Electrophorus electricus, UniProt O42275); test: biochemical
T2 construct: purchased Sigma-Aldrich C3389

NLRP3 = NLRP3 ELISA in LPS-induced RAW264.7 cells; assay type: cell-based, murine; conditions: 25 µM (method: 20 µM), LPS 0.5 µg/mL, 24 h
Text: The induced cytokines further contribute to AD pathology by hyperphosphorylation of the tau protein [19]. Additionally, the activation of NLRP3 has been implicated in the pathogenesis of AD [20, 21], and this inflammatory response fosters the generation of Aβ and tau, ultimately contributing to disease progression. Thus, to determine the anti-inflammatory activities of the prepared derivatives, we measured the inhibition of nitrogen oxide (NO) and NLRP3 in LPS-induced RAW264.7 cells. The active concentration for activity assessment was established as 25 µM, at which cell viability had been previously confirmed.
RAW 264.7 macrophages were seeded at a density of 5 × 10^5 cells/well in 96-well plates and treated with 20 µM of RA-Hyd-Me, RA-Hyd-Me-tol, RA-Benzo, and RA-Sali for 1 h and then stimulated with 0.5 μg/mL LPS for 24 h. Culture supernatant levels of NOD-like receptor pyrine domain containing-3 (NLRP3) were determined using a commercially available ELISA kit (Lsbio, Seattle, WA, USA) and following the instructions of the manufacturer. The absorbance of the plate was read at a wavelength of 450 nm. NLRP3 was determined from a standard curve. The concentrations were expressed as ng/mL. To obtain statistical significance, all experiments were carried out in duplicate.

[5] = Stability of Ramalin in water vs deoxygenated water (10 mM, 48 h, 25 °C); assay type: physicochemical
Text: This is evidenced by the increased stability when dissolved in deoxygenated water compared to water containing dissolved oxygen. […] We attempted modifications by introducing a methyl group into phenyl hydrazine to prevent conversion into the azo form or by linking the phenyl group to a benzophenone structure to block electron flow and mitigate oxidation, thereby enhancing stability.

[6] = FRET kit, 60 min, RT, triplicate, read-out: BACE-1 IC50

T1 sequence (P56817 46-501): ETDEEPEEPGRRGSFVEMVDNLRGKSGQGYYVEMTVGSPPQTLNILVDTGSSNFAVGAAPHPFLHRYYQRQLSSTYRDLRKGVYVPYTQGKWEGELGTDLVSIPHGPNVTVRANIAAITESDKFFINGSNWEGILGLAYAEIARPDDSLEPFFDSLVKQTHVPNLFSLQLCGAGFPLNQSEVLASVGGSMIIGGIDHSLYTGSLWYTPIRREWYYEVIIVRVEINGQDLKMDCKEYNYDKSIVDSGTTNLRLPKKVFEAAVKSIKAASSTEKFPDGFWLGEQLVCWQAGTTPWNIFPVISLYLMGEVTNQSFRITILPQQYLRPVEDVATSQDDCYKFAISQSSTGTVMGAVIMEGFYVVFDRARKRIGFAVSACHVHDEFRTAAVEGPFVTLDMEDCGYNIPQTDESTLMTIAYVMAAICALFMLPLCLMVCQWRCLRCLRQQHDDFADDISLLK
T2 sequence (O42275 24-633): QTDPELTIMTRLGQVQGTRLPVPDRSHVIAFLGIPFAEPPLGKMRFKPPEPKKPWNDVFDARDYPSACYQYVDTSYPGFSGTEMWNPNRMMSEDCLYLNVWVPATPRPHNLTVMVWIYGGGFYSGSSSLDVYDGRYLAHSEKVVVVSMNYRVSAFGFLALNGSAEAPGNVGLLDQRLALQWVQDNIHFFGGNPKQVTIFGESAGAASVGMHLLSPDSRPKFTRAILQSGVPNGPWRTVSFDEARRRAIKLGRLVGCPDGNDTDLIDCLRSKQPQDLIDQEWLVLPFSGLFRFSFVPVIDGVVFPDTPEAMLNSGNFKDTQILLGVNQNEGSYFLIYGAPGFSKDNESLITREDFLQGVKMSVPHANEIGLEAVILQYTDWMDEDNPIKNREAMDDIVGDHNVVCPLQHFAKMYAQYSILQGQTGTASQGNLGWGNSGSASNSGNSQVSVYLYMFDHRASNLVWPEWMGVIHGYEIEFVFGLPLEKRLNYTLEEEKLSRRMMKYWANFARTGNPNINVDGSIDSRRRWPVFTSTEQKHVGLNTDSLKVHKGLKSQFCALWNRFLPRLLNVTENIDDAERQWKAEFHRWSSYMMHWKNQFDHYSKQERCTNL

## Cl.N[C@@H](CCC(=O)NNC(=O)c1ccccc1)C(=O)O [RA-Benzo, N^5-benzamido-L-glutamine hydrochloride]
BACE-1; [6]
  IC50: 144 ± 87.1 µM
[1]
  Chemical stability, Initial (%): 100%
  Chemical stability, 24 h: 97.2%
  Chemical stability, 48 h: 94.4%
  Chemical stability, 76 h: 91.5%
  Chemical stability, 164 h: 82.5%
  Chemical stability, 330 h: 68.0%
[2]
  inhibition at 20 µM: 10 to 15%

## CN(NC(=O)CC[C@H](N)C(=O)O)c1ccccc1 [RA-Hyd-Me, N^5-(methyl(phenyl)amino)-L-glutamine]
[3]
  IC50: 14.4 µM
BACE-1
  IC50: 15.5 ± 5.8 µM
[1]
  Chemical stability, Initial (%): 100%
  Chemical stability, 24 h: 97.5%
  Chemical stability, 48 h: 94.5%
  Chemical stability, 76 h: 91.1%
  Chemical stability, 164 h: 80.3%
  Chemical stability, 330 h: 65.4%
[2]
  inhibition at 20 µM: 10 to 15%

## Cc1cccc(N(C)NC(=O)CC[C@H](N)C(=O)O)c1 [RA-Hyd-Me-Tol, N^5-(methyl(m-tolyl)amino)-L-glutamine]
[3]
  IC50: 12.4 µM
BACE-1; [6]
  IC50: 22.5 ± 1.76 µM
[1]
  Chemical stability, Initial (%): 100%
  Chemical stability, 24 h: 97.5%
  Chemical stability, 48 h: 94.6%
  Chemical stability, 76 h: 91.0%
  Chemical stability, 164 h: 80.0%
  Chemical stability, 330 h: 63.4%
[2]
  inhibition at 20 µM: 10 to 15%

## Cl.N[C@@H](CCC(=O)NNC(=O)c1ccccc1O)C(=O)O [RA-Sali, N^5-(2-hydroxybenzamido)-L-glutamine hydrochloride]
[4]
  inhibition at 50 µM: 7.8%
BACE-1; [6]
  IC50: 8.44 ± 5.16 µM
[1]
  Chemical stability, Initial (%): 100%
  Chemical stability, 24 h: 99.6%
  Chemical stability, 48 h: 96.7%
  Chemical stability, 76 h: 93.3%
  Chemical stability, 164 h: 82.6%
  Chemical stability, 330 h: 69.1%
NLRP3
  NLRP3 inhibitory activity: ~ 25%
[2]
  inhibition at 20 µM: ~40%

## N[C@@H](CCC(=O)NNc1ccccc1O)C(=O)O [Ramalin, reference compound]
[5]; deoxygenated water
  Ramalin remained in deoxygenated water: 92%
[5]; regular water
  Ramalin remained in regular water: about 53%
[1]
  Chemical stability, Initial (%): 100% ^1
  Chemical stability, 24 h: 35.1% ^2
  Chemical stability, 48 h: 17.1%
  Chemical stability, 76 h: 7.6%
